Results taken from US8637683B2, “Macrocyclic lactone derivatives for the treatment of cancer” (Piramal Enterprises Limited, priority 2009, dated 2014).

How the values were obtained:
[1] = test system: panel of 12 human tumor cell lines; assay: Monolayer assay, panel of 12 human tumor cell lines; assay type: cell-based; conditions: for IC50 / Mean IC70: mean over panel of 12 human tumor cell lines, test range 0.0001 μM-10 μM; for % Selectivity / Rating (selectivity) / Selectivity Total (cell lines with individual IC70 < 1/3 mean IC70) / in vitro antitumor activity: panel of 12 human tumor cell lines
Description: (§1) Cell lines were routinely passaged once or twice weekly and maintained in culture for upto 20 passages. All cells were grown at 37° C. in a humidified atmosphere with 5% CO2 in RPMI 1640 medium supplemented with 10% (v/v) fetal calf serum (FCS) and 0.1 mg/mL gentamicin (medium and all other components from PAA, Cölbe, Germany). Authenticity of all cell lines was proven at the DSMZ by STR (short tandem repeat) analysis, a PCR based DNA-fingerprinting methodology.
Stock solutions of the test compounds (330 μg/mL in DMSO) were prepared and stored in small aliquots (200 μL) at −20° C. An aliquot of the stock solution was thawed on the day of use and stored at room temperature prior to and during dosing. The subsequent dilutions were done with complete RPMI 1640 cell culture medium as follows: the stock solution was diluted 1:22 followed by serial dilutions finally resulting in a (compared to the test concentration) 15-fold higher concentration. For the final dilution step (1:15), 10 μL/well of the respective compound solution was directly added to 140 μL/well culture medium. Test compounds were tested at […]. Each concentration was evaluated in triplicate.
A modified propidium iodide assay was used to assess the effect of the test compounds on the growth of the human tumor cell lines and was designed as in reference, Anti-cancer Drugs, 6, 522-532, (1995), the disclosure of which is incorporated by reference for the teaching of the assay.
Cells were plated in 96-well flat-bottom microtiter plates at a cell density of 4,000 to 10,000 cells/well. After a 24 h recovery period to allow the cells to resume exponential growth, the test compounds were applied at five concentrations in log increments in triplicates in two independent runs. After 4 days of treatment, the medium with/without test compounds including all floating (i.e., dead) cells was aspirated and replaced by 200 μL of an aqueous propidium iodide (PI) solution (7 μg/mL). To measure the viable cell number, the remaining adherent cells were killed and permeabilized by repeated freezing and thawing and PI fluorescence was measured using the Cytofluor 4000 microplate reader (excitation λ=530 nm, emission λ=620 nm), which was a measure for the number of cells which survived treatment. Pharmacological effects on cell proliferation and survival were expressed as Test/Control×100 (% T/C) values, with T and C representing the fluorescence read-outs for wells with and without test compound, respectively, i.e. T/C represents the ratio of viable cell numbers following incubation of cell line with/without test compound. Based on the T/C values IC50 and IC70 values, being the drug concentration necessary to inhibit cell growth by 50% (T/C=50%) and 70% (T/C=30%), respectively, were determined by plotting compound concentration versus cell viability (T/C). IC-values were calculated based on the principle of linear two-point curve fit.

T 24 = assay: Monolayer assay (modified propidium iodide), T 24; assay type: cell-based, human; conditions: T 24, Bladder; 4 days of treatment
From the text: (§2) Oncotest GmbH, Germany's proprietary tumor cell line panel comprises 40 cell lines. These cell lines were derived from 15 different tumor histotypes, each represented by 1 to 6 different cell lines. Cell lines were established from cancer of the bladder (3), colon (4), head and neck (1), lung (6), breast (3), pancreas (3), prostate (4), ovary (2), kidney (3), liver (1), stomach (1) and the uteri body (1), as well as from melanoma (3), sarcoma (2) and pleuramesothelioma (3). Out of these 40 cell lines, 24 cell lines were established at Oncotest, from patient-derived tumor xenografts. The other 16 cell lines were either provided by the NCI (Bethesda; MD, USA) or were purchased from ATCC (Rockville, Md., USA) or DSMZ (Braunschweig, Germany).
as §1, with “Authenticity of all cell lines was proven at the DSMZ by STR (short tandem repeat) analysis, a PCR based DNA-fingerprinting methodology.” left out
(§3) Stock solutions of the test compounds (330 μg/mL in DMSO) were prepared and stored in small aliquots (200 μL) at −20° C. […] Each concentration was evaluated in triplicate. […]
(§4) Cells were plated in 96-well flat-bottom microtiter plates at a cell density of 4,000 to 10,000 cells/well. […] To measure the viable cell number, the remaining adherent cells were killed and permeabilized by repeated freezing and thawing and PI fluorescence was measured using the Cytofluor 4000 microplate reader (excitation λ=530 nm, emission λ=620 nm), which was a measure for the number of cells which survived treatment. Pharmacological effects on cell proliferation and survival were expressed as Test/Control×100 (% T/C) values, with T and C representing the fluorescence read-outs for wells with and without test compound, respectively, i.e. T/C represents the ratio of viable cell numbers following incubation of cell line with/without test compound. […] IC-values were calculated based on the principle of linear two-point curve fit. […]

CXF 269L = assay: Monolayer assay (modified propidium iodide), CXF 269L; assay type: cell-based, human; conditions: Colon, 4 days of treatment
From the text: as §2
as §1, with “Authenticity of all cell lines was proven at the DSMZ by STR (short tandem repeat) analysis, a PCR based DNA-fingerprinting methodology.” left out
as §3, §4

LXF 526L = assay: Monolayer assay (modified propidium iodide), LXF 526L; assay type: cell-based, human; conditions: Lung, 4 days of treatment
From the text: as §2
as §1, with “Authenticity of all cell lines was proven at the DSMZ by STR (short tandem repeat) analysis, a PCR based DNA-fingerprinting methodology.” left out
as §3, §4

MDA 231 = assay: Monolayer assay (modified propidium iodide), MDA 231; assay type: cell-based, human; conditions: MDA 231, Mammary; 4 days of treatment
From the text: as §2
as §1, with “Authenticity of all cell lines was proven at the DSMZ by STR (short tandem repeat) analysis, a PCR based DNA-fingerprinting methodology.” left out
as §3, §4

Row | Compound | IC50 [1] [nM] | Mean IC70 [1] [µM] | % Selectivity [1] [%] | Rating (selectivity) [1] | Selectivity Total (cell lines with individual IC70 < 1/3 mean IC70) [1] | in vitro antitumor activity [1] | IC70 (T 24) [ng/mL] | IC70 (CXF 269L) [ng/mL] | IC70 (LXF 526L) [ng/mL] | IC70 (MDA 231) [ng/mL]
1 | C/C=C/C(O)C(C)/C=C/C(=NOCC(=O)O)C(C)C(O)C(C)C1OC(=O)/C(OC)=C/C(C)=C/C(C)C(O)C(CC)C(O)C(C)C/C(C)=C/C=C/C1OC (stereo in doubt) [Example 10, ((Z)-((6E,10E)-2-((4E,6E,14E,16Z)-11-Ethyl-10,12-dihydroxy-3,17-dimethoxy-7,9,13,15-tetramethyl-18-oxooxacyclooctadeca-4,6,14,16-tetraen-2-yl)-3,9-dihydroxy-4,8-dimethyldodeca-6,10-dien-5-ylidene)aminooxy)acetic acid] | 514 | 1.258 | 8 | (+) (+ (4% > selective >= 12%)) | 1/12 | showed in vitro antitumor activity |  |  |  | 
2 | C/C=C/C(O)C(C)/C=C/C(=NOCC(=O)N1CCN(C)CC1)C(C)C(O)C(C)C1OC(=O)/C(OC)=C/C(C)=C/C(C)C(O)C(CC)C(O)C(C)C/C(C)=C/C=C/C1OC (stereo in doubt) [Example 11, (3Z,5E,13E,15E)-18-((5Z,6E,10E)-3,9-Dihydroxy-4,8-dimethyl-5-(2-(4-methylpiperazin-1-yl)-2-oxoethoxyimino)dodeca-6,10-dien-2-yl)-9-ethyl-8,10-dihydroxy-3,17-dimethoxy-5,7,11,13-tetramethyloxacyclooctadeca-3,5,13,15-tetraen-2-one] | 6 | 0.020 | 25 | (+ + +) | 3/12 | showed in vitro antitumor activity |  |  |  | 
3 | C/C=C/C(O)C(C)/C=C/C(=NOCC(=O)NCCO)C(C)C(O)C(C)C1OC(=O)/C(OC)=C/C(C)=C/C(C)C(O)C(CC)C(O)C(C)C/C(C)=C/C=C/C1OC (stereo in doubt) [Example 12, 2-((Z)-((6E,10E)-2-((4E,6E,14E,16Z)-11-Ethyl-10,12-dihydroxy-3,17-dimethoxy-7,9,13,15-tetramethyl-18-oxooxacyclooctadeca-4,6,14,16-tetraen-2-yl)-3,9-dihydroxy-4,8-dimethyldodeca-6,10-dien-5-ylidene)aminooxy)-N-(2-hydroxyethyl)acetamide] | 2 | 0.006 | 42 | (+ + +) | 5/12 | showed in vitro antitumor activity |  |  |  | 
4 | C/C=C/C(O)C(C)/C=C/C(=NOCC(=O)N1CCCCC1)C(C)C(O)C(C)C1OC(=O)/C(OC)=C/C(C)=C/C(C)C(O)C(CC)C(O)C(C)C/C(C)=C/C=C/C1OC (stereo in doubt) [Example 13, (3Z,5E,13E,15E)-18-((5Z,6E,10E)-3,9-Dihydroxy-4,8-dimethyl-5-(2-oxo-2-(piperidin-1-yl)ethoxyimino)dodeca-6,10-dien-2-yl)-9-ethyl-8,10-dihydroxy-3,17-dimethoxy-5,7,11,13-tetramethyloxacyclooctadeca-3,5,13,15-tetraen-2-one] | 30 | 0.097 | 17 | (+ +) | 2/12 | showed in vitro antitumor activity |  |  |  | 
5 | C/C=C/C(O)C(C)/C=C/C(=NOCC(=O)N1CCC(N2CCCCC2)CC1)C(C)C(O)C(C)C1OC(=O)/C(OC)=C/C(C)=C/C(C)C(O)C(CC)C(O)C(C)C/C(C)=C/C=C/C1OC (stereo in doubt) [Example 14, (3Z,5E,13E,15E)-18-((5Z,6E,10E)-5-(2-(1,4′-Bipiperidin-1′-yl)-2-oxoethoxyimino)-3,9-dihydroxy-4,8-dimethyldodeca-6,10-dien-2-yl)-9-ethyl-8,10-dihydroxy-3,17-dimethoxy-5,7,11,13-tetramethyloxacyclooctadeca-3,5,13,15-tetraen-2-one] | 358 | 0.762 | 8 | (+) (+ (4% > selective >= 12%)) | 1/12 | showed in vitro antitumor activity |  |  |  | 
6 | C/C=C/C(O)C(C)/C=C/C(=NOCC(=O)NCc1ccc(F)cc1)C(C)C(O)C(C)C1OC(=O)/C(OC)=C/C(C)=C/C(C)C(O)C(CC)C(O)C(C)C/C(C)=C/C=C/C1OC (stereo in doubt) [Example 15, 2-((Z)-((6E,10E)-2-((4E,6E,14E,16Z)-11 Ethyl-10,12-dihydroxy-3,17-dimethoxy-7,9,13,15-tetramethyl-18-oxooxacyclooctadeca-4,6,14,16-tetraen-2-yl)-3,9-dihydroxy-4,8-dimethyldodeca-6,10-dien-5-ylidene)aminooxy)-N-(4-fluorobenzyl)acetamide] | 1 | 0.003 | 50 | (+++) (+++ (% selective > 20%)) | 6/12 | showed in vitro antitumor activity |  |  |  | 
7 | C/C=C/C(O)C(C)/C=C/C(=N\OC)C(C)C(O)C(C)C1OC(=O)/C(OC)=C/C(C)=C/C(C)C(O)C(CC)C(O)C(C)C/C(C)=C/C=C/C1OC (stereo not shown) [Example 8, (3Z,5E,13E,15E)-18-((5E,6E,10E)-3,9-Dihydroxy-5-(methoxyimino)-4,8-dimethyldodeca-6,10-dien-2-yl)-9-ethyl-8,10-dihydroxy-3,17-dimethoxy-5,7,11,13-tetramethyloxacycloocta deca-3,5,13,15-tetraen-2-one] |  |  |  |  |  |  | ≤ 0.3 | ≤ 0.3 | ≤ 0.3 | ≤ 0.3
